Results published in ChEMBL document CHEMBL3393021, “Evaluation and synthesis of polar aryl- and heteroaryl spiroazetidine-piperidine acetamides as ghrelin inverse agonists” (ACS Med Chem Lett, 2015).
Values after ≈ are worked out from the molar mass of the structure shown.

Tests used:
physchem = details: buffer, pH 7.4
[1] = Oral bioavailability in […] at 5 mg/kg; assay type: ADME, organism-based, Macaca fascicularis; details: in vivo
[2] = Oral bioavailability in Wistar Han rat at 5 mg/kg; assay type: ADME, organism-based; details: in vivo
[3] = Toxicity in human THLE cells; assay type: cell-based
[4] = Oral bioavailability in […] at 4 mg/kg; assay type: ADME, organism-based, Canis lupus familiaris; details: in vivo
[5] = Kinetic solubility in 2% sodium phosphate buffer at pH 6.5 after 24 hrs; assay type: physicochemical; details: read-out: Kinetic_solubility
[6] = Volume of distribution at steady state in […] at 1 mg/kg, iv or 5 mg/kg, po; assay type: ADME, organism-based, Macaca fascicularis; details: in vivo, read-out: Vdss
[7] = Volume of distribution at steady state in Wistar Han rat at 1 mg/kg, iv or 5 mg/kg, po; assay type: ADME, organism-based; details: in vivo, read-out: Vdss
[8] = Volume of distribution at steady state in […] at 1 mg/kg, iv or 4 mg/kg, po; assay type: ADME, organism-based, Canis lupus familiaris; details: in vivo, read-out: Vdss

With `COc1ccc(CC(=O)N2CCC3(CC2)CN([C@@H]2CCc4cc(-c5cc(C)ncn5)ccc42)C3)nc1` as the molecule, how does the logD (physchem) read?
Its logD is 1.6.

Which logD (physchem) does the source give for `Cc1cc(-c2ccc3c(c2)CC[C@H]3N2CC3(CCN(C(=O)Cc4nn(C)c5ncccc45)CC3)C2)ncn1` here?
Its logD is 2.1.

With `COc1ccc(CC(=O)N2CCC3(CC2)CN([C@@H]2CCc4cc(-c5cc(C)ncn5)ccc42)C3)c(C#N)c1` as the molecule, how does the logD (physchem) read?
Its logD is 2.4.

With `COc1ccc(OCC(=O)N2CCC3(CC2)CN([C@@H]2CCc4cc(-c5cc(C)ncn5)ccc42)C3)c(C#N)c1` as the molecule, how does the logD (physchem) read?
Its logD is 2.3.

Which results are given for `COc1ccc(CC(=O)N2CCC3(CC2)CN([C@@H]2CCc4cc(-c5cc(C)ncn5)ccc42)C3)c(C(N)=O)c1`?
bioavailability [1]: 32%; bioavailability [2]: 15%; INH [3]: > 248 µM; bioavailability [4]: 67%; solubility kinetic at 24 h [5]: 185 µg/mL (≈ 352 µM); Vd [6]: 2.2 L/kg; Vd [7]: 8.1 L/kg; Vd [8]: 7.3 L/kg; logD (physchem): 1.4

For `COc1ccc(CCC(=O)N2CCC3(CC2)CN([C@@H]2CCc4cc(-c5cc(C)ncn5)ccc42)C3)c(C(N)=O)c1`, which logD (physchem) is on record?
The logD was 1.9.

For `COc1ccc(CC(=O)N2CCC3(CC2)CN([C@@H]2CCc4cc(-c5cc(C)ncn5)ccc42)C3)c(NC(C)=O)c1`, which logD (physchem) is on record?
The logD was 1.6.
